Test results as given in patent publication US20210268450A1, “COMPOSITION USEFUL FOR PRODUCTION OF ACIDIC GAS SEPARATION MEMBRANE” (SUMITOMO CHEMICAL COMPANY, LIMITED, priority 2018, published 2021).

Assay: acid dissociation constant in a 25° C. aqueous solution (titration method)
Format: physicochemical
Conditions: for acid dissociation constant in a 25° C. aqueous solution 1: first constant; for acid dissociation constant 2: second constant
Excerpt: This acid dissociation constant is a value as measured by a known titration method based on the definition of Bronsted (Shinpan Bunseki Kagaku Jikken, Nihon Bunseki Kagakukai Hokkaido Shibu ed., pp. 219 to 237).

Compound	acid dissociation constant in a 25° C. aqueous solution 1	acid dissociation constant 2	acid dissociation constant 3 (third constant)	acid dissociation constant in a 25° C. aqueous solution (single constant)
Oc1cccc(O)c1 [Weakly acidic organic compound 1, resorcinol]	9.3	9.8		
Oc1cc(O)cc(O)c1 [Weakly acidic organic compound 2, phloroglucinol]	8.0	9.2	14.0	
CS(=O)(=O)Nc1ccccc1 [Weakly acidic organic compound 4, N-phenylmethanesulfonamide]				12.9
Oc1cccc(O)c1O [Weakly acidic organic compound 5, pyrogallol]	9.0	11.6		
Oc1ccccc1O [Weakly acidic organic compound 6, catechol]	9.1	12.1		
